Measured values: US8937069B2, “Substituted pyrrolo[2,3-B]pyrazine compounds and their use” (Novartis AG, priority 2012, dated 2015)

These compounds were tested against T1, IP receptor (Homo sapiens, UniProt P43119) (assay: cAMP accumulation in CHO cells stably expressing the IP receptor (CHO-IP), PerkinElmer AlphaScreen assay). Settings: agonist activity, 1 hour at room temperature, 4-parameter logistic fit.
T1 construct: expressed in transfected cells; host or cells: CHO cells stably expressing the IP receptor (CHO-IP)
T1 sequence (P43119 whole entry): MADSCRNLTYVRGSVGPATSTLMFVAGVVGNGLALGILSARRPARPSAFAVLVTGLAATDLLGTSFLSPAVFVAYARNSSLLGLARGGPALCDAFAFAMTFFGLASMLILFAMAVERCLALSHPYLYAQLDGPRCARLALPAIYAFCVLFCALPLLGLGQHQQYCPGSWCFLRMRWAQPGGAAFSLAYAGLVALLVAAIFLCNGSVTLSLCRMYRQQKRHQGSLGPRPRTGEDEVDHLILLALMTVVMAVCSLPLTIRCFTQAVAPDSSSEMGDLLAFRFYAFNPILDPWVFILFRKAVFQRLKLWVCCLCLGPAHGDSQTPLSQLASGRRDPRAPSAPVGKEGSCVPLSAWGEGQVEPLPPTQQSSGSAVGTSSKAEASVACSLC
Format: cell-based
Experimental: Activity of compounds at the IP receptor (IP receptor) is assessed by measuring cAMP accumulation in CHO cells stably expressing the IP receptor (CHO-IP) using the PerkinElmer AlphaScreen assay. This technology measures the endogenous production of cAMP, in a non-radioactive luminescence proximity homogenous assay. A biological reaction occurs between streptavidin coated donor beads, biotinylated cAMP and anti-cAMP acceptor beads, bringing the donor and acceptor beads close enough together so that upon excitation a fluorescence signal is produced. On production of endogenous cAMP, competition between the biotinylated cAMP and cellular-derived cAMP causes a reduction in the fluorescent signal. The reduction in signal is proportional to the amount of cAMP being produced, thus it is possible to quantify the amount of cAMP being produced on stimulation with agonist.
Test and reference compounds are prepared at 100×[final] in 100% DMSO, and diluted 1:3 using a Biomek Fx (Beckman Coulter). This is followed by an intermediate dilution to give 5×[final] in assay buffer (HBSS containing 5 mM HEPES, 0.1% (w/v) BSA). 5 μL of 5×[final] test compounds, reference compounds and buffer/DMSO control are then transferred to a 384-well white OptiPlate, containing 20 μL CHO-IP cell suspension (15,000 cells/well, prepared from frozen), and plate is incubated at room temperature for 1 hour. A cAMP standard curve is constructed for each experiment (concentration range of 10000 nM to 0.001 nM, in assay buffer) and 25 μL of each concentration added to the last two columns of the assay plate. The incubation is terminated by the addition of lysis buffer (dH2O; 0.3% (v v^−1) Tween-20) containing 20 units mL^−1 streptavidin coated donor beads and biotinylated cAMP (pre-incubated for 30 minutes) and 20 units mL^−1 anti-cAMP acceptor beads, which are added to the lysis buffer just before addition to the assay plate. The assay plate is then incubated at room temperature in the dark, for 60 minutes with gentle shaking, and read on the Envision plate reader (Perkin Elmer).
The raw data of the reference compounds, test compounds and controls are converted into cAMP concentrations, using the cAMP standard curve, in GraphPadPrism (GraphPad Software Inc). EC50 as well as maximal values of the agonist curves are determined using a 4-parameter logistic equation. The % maximum response values of all test compounds are determined using the top of the treprostinil concentration-response curve.

Row | SMILES | EC50
1 | Cc1ccc(-c2nc3cc(C4CC4)n(CCCCCCC(=O)O)c3nc2-c2ccc(C)cc2)cc1 [Example 1, 7-(6-Cyclopropyl-2,3-di-p-tolyl-5H-pyrrolo[2,3-b]pyrazin-5-yl)heptanoic acid] | 1.7 nM
2 | CCOC(=O)CCCCCCn1c(C2CC2)cc2nc(-c3ccc(C)cc3)c(-c3ccc(C)cc3)nc21 [Example 1.1, Ethyl 7-(6-cyclopropyl-2,3-di-p-tolyl-5H-pyrrolo[2,3-b]pyrazin-5-yl)heptanoate] | 57.5 nM
3 | Cc1ccc(-c2nc3cc(C(C)C)n(CCCCCCC(=O)O)c3nc2-c2ccc(C)cc2)cc1 [Example 1.2, 7-(6-Isopropyl-2,3-di-p-tolyl-pyrrolo[2,3-b]pyrazin-5-yl)-heptanoic acid] | 1.8 nM
4 | CCOC(=O)CCCCCCn1c(C(C)C)cc2nc(-c3ccc(C)cc3)c(-c3ccc(C)cc3)nc21 [Example 1.3, ethyl 7-(6-isopropyl-2,3-di-p-tolyl-5H-pyrrolo[2,3-b]pyrazin-5-yl)heptanoate] | 283 nM
5 | CCOC(=O)CCCCCCn1ccc2nc(-c3ccc(C)cc3)c(-c3ccc(C)cc3)nc21 [Example 1.4, 7-(2,3-Di-p-tolyl-pyrrolo[2,3-b]pyrazin-5-yl)-heptanoic acid ethyl ester] | 18.3 nM
6 | Cc1ccc(-c2nc3ccn(CCCCCCC(=O)O)c3nc2-c2ccc(C)cc2)cc1 [Example 1.5, 7-(2,3-Di-p-tolyl-pyrrolo[2,3-b]pyrazin-5-yl)-heptanoic acid] | 6.9 nM
7 | Cc1ccc(-c2nc3c(C=O)cn(CCCCCCC(=O)O)c3nc2-c2ccc(C)cc2)cc1 [Example 2.1, 7-(7-Formyl-2,3di-p-tolyl-5H-pyrrolo[2,3-b]pyrazin-5-yl)heptanoic acid] | 7.1 nM
8 | Cc1ccc(-c2nc3c(CO)cn(CCCCCCC(=O)O)c3nc2-c2ccc(C)cc2)cc1 [Example 2.2, 7-(7-(Hydroxymethyl)-2,3-di-p-tolyl-5H-pyrrolo[2,3-b]pyrazin-5-yl)heptanoic acid] | 17.4 nM
9 | CCOC(=O)CCCCCCn1cc(CO)c2nc(-c3ccc(C)cc3)c(-c3ccc(C)cc3)nc21 [Example 3, Ethyl 7-(7-(hydroxymethyl)-2,3-di-p-tolyl-5H-pyrrolo[2,3-b]pyrazin-5-yl)heptanoate] | 325 nM
10 | CCOC(=O)CCCCCCn1cc(CNC(C)C)c2nc(-c3ccc(C)cc3)c(-c3ccc(C)cc3)nc21 [Example 4.1, Ethyl 7-(7-((isopropylamino)methyl)-2,3-di-p-tolyl-5H-pyrrolo[2,3-b]pyrazin-5-yl)heptanoate] | 415 nM
11 | Cc1ccc(-c2nc3c(CNC(C)C)cn(CCCCCCC(=O)O)c3nc2-c2ccc(C)cc2)cc1 [Example 4.2, 7-(7-((Isopropylamino)methyl)-2,3-di-p-tolyl-5H-pyrrolo[2,3-b]pyrazin-5-yl)heptanoic acid] | 79.7 nM
12 | COc1cc2nc(-c3ccc(C)cc3)c(-c3ccc(C)cc3)nc2n1CCCCCCC(=O)O [Example 5, 7-(6-Methoxy-2,3-di-p-tolyl-pyrrolo[2,3-b]pyrazin-5-yl)-heptanoic acid] | 0.7 nM
13 | CCOC(=O)CCCCCCN1CCc2nc(-c3ccc(C)cc3)c(-c3ccc(C)cc3)nc21 [Example 6, Ethyl 7-(2,3-di-p-tolyl-6,7-dihydro-5H-pyrrolo[2,3-b]pyrazin-5-yl)heptanoate] | 1.8 nM
14 | Cc1ccc(-c2nc3cc(CCCCC(=O)O)[nH]c3nc2-c2ccc(C)cc2)cc1 [Example 7, 5-(2,3-Di-p-tolyl-5H-pyrrolo[2,3-b]pyrazin-6-yl)-pentanoic acid] | 320 nM
15 | Cc1ccc(-c2nc3cc(CCCCC(=O)NCC(=O)O)[nH]c3nc2-c2ccc(C)cc2)cc1 [Example 8, 2-(5-(2,3-Di-p-tolyl-5H-pyrrolo[2,3-b]pyrazin-6-yl)pentanamido)acetic acid] | 1250 nM
16 | Cc1ccc(-c2nc3cc(C)n(CCCCCCC(=O)O)c3nc2-c2ccc(C)cc2)cc1 [Example 9, 7-(6-Methyl-2,3-di-p-tolyl-5H-pyrrolo[2,3-b]pyrazin-5-yl)heptanoic acid] | 0.3 nM

Row | SMILES | EC50
17 | O=C(O)CCCCCCn1c(C2CC2)cc2nc(-c3ccccc3)c(-c3ccccc3)nc21 [Example 10, 7-(6-Cyclopropyl-2,3-diphenyl-pyrrolo[2,3-b]pyrazin-5-yl)-heptanoic acid] | 0.5 nM
18 | COc1ccc(-c2nc3cc(C4CC4)n(CCCCCCC(=O)O)c3nc2-c2ccc(C)cc2)cc1 [Example 10.1, 7-(6-cyclopropyl-2-(4-methoxy-phenyl)-3-(p-tolyl)-5H-pyrrolo[2,3-b]pyrazin-5-yl)heptanoic acid] | 2.4 nM
19 | O=C(O)CCCCCCn1c(C2CC2)cc2nc(-c3ccc(Cl)cc3)c(-c3ccc(Cl)cc3)nc21 [Example 10.2, 7-(2,3-bis(4-chlorophenyl)-6-cyclopropyl-5H-pyrrolo[2,3-b]pyrazin-5-yl)heptanoic acid] | 5.6 nM
20 | CCc1ccc(-c2nc3cc(C4CC4)n(CCCCCCC(=O)O)c3nc2-c2ccc(C)cc2)cc1 [Example 10.3, 7-(6-cyclopropyl-2-(4-ethylphenyl)-3-(p-tolyl)-5H-pyrrolo[2,3-b]pyrazin-5-yl)heptanoic acid] | 6.8 nM
21 | Cc1cccc(-c2nc3cc(C4CC4)n(CCCCCCC(=O)O)c3nc2-c2cccc(C)c2)c1 [Example 10.4, 7-(6-cyclopropyl-2,3-di-m-tolyl-5H-pyrrolo[2,3-b]pyrazin-5-yl)heptanoic acid] | 60.6 nM
22 | CCc1ccc(-c2nc3c(cc(C4CC4)n3CCCCCCC(=O)O)nc2-c2ccc(C)cc2)cc1 [Example 10.5, 7-(6-cyclopropyl-3-(4-ethylphenyl)-2-(p-tolyl)-5H-pyrrolo[2,3-b]pyrazin-5-yl)heptanoic acid] | 4.4 nM
23 | COc1ccc(-c2nc3c(cc(C4CC4)n3CCCCCCC(=O)O)nc2-c2ccc(C)cc2)cc1 [Example 10.6, 7-(6-cyclopropyl-3-(4-methoxyphenyl)-2-(p-tolyl)-5H-pyrrolo[2,3-b]pyrazin-5-yl)heptanoic acid] | 6.1 nM
24 | Cc1ccc(-c2nc3cc(C4CC4)n(CCCCCCC(=O)O)c3nc2-c2cccc(C)c2)cc1 [Example 10.7, 7-(6-cyclopropyl-3-(m-tolyl)-2-(p-tolyl)-5H-pyrrolo[2,3-b]pyrazin-5-yl)heptanoic acid] | 37.1 nM
25 | Cc1ccc(-c2nc3c(cc(C4CC4)n3CCCCCCC(=O)O)nc2-c2cccc(C)c2)cc1 [Example 10.8, 7-(6-cyclopropyl-2-(m-tolyl)-3-(p-tolyl)-5H-pyrrolo[2,3-b]pyrazin-5-yl)heptanoic acid] | 2.5 nM
26 | Cc1ccc(-c2nc3cc(CCO)n(CCCCCCC(=O)O)c3nc2-c2ccc(C)cc2)cc1 [Example 11, 7-(6-(2-Hydroxyethyl)-2,3-di-p-tolyl-5H-pyrrolo[2,3-b]pyrazin-5-yl)heptanoic acid] | 1.6 nM
27 | Cc1ccc(-c2nc3cc(C4CC4)n(CCCCC(=O)O)c3nc2-c2ccc(C)cc2)cc1 [Example 12, 5-(6-Cyclopropyl-2,3-di-p-tolyl-5H-pyrrolo[2,3-b]pyrazin-5-yl)pentanoic acid] | 660 nM
28 | Cc1ccc(-c2nc3cc(C4CC4)n(CCCCCC(=O)O)c3nc2-c2ccc(C)cc2)cc1 [Example 13, 6-(6-Cyclopropyl-2,3-di-p-tolyl-5H-pyrrolo[2,3-b]pyrazin-5-yl)hexanoic acid] | 2.4 nM
29 | COCc1cn(CCCCCCC(=O)O)c2nc(-c3ccc(C)cc3)c(-c3ccc(C)cc3)nc12 [Example 14, 7-(7-(Methoxymethyl)-2,3-di-p-tolyl-5H-pyrrolo[2,3-b]pyrazin-5-yl)heptanoic acid] | 4.2 nM
30 | Cc1ccc(-c2nc3c(nc2-c2ccc(C)cc2)N(CCCCCCC(=O)O)C(=O)C3)cc1 [Example 15, 7-(6-oxo-2,3-dip-tolyl-6,7-dihydro-5H-pyrrolo[2,3-b]pyrazin-5-yl)heptanoic acid] | 3.6 nM
31 | Cc1ccc(-c2nc3cc(C(F)(F)F)n(CCCCCCC(=O)O)c3nc2-c2ccc(C)cc2)cc1 [Example 16, 7-(2,3-Dip-tolyl-6-(trifluoromethyl)-5H-pyrrolo[2,3-b]pyrazin-5-yl)heptanoic acid] | 3 nM
32 | CCc1c(CC)n(CCCCCCC(=O)O)c2nc(-c3ccc(C)cc3)c(-c3ccc(C)cc3)nc12 [Example 17, 7-(6,7-Diethyl-2,3-di-p-tolyl-5H-pyrrolo[2,3-b]pyrazin-5-yl)heptanoic acid] | 0.5 nM
